The record followed here is patent US6160175A, “Naphthyl acetamides as sPLA2 inhibitors” (Eli Lilly and Company, priority 1996, dated 2000).

The target of this assay is T1, recombinant human secreted phospholipase A2 (Homo sapiens, UniProt P14555).
T1 sequence (P14555 21-144): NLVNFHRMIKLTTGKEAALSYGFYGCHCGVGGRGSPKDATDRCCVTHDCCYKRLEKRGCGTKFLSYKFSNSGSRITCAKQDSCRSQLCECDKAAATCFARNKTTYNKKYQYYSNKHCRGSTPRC
In words: Chromogenic assay; Human Secreted Phospholipase A2 Inhibition Tests. It counts as biochemical. As to conditions: racemic diheptanoyl thio-PC substrate 1 mM, Triton X-100 0.29 mM, pH 7.5, 40° C., 30 minutes, 405 nm; read-out: Inhibition of human secreted PLA2, IC50 ± mean deviation (3-4 tests). An excerpt:
The following chromogenic assay procedure was used to identify and evaluate inhibitors of recombinant human secreted phospholipase A2. The assay described herein has been adapted for high volume screening using 96 well microtiter plates. A general description of this assay method is found in the article, "Analysis of Human Synovial Fluid Phospholipase A2 on Short Chain Phosphatidylcholine-Mixed Micelles: Development of a Spectrophotometric Assay Suitable for a Microtiterplate Reader", by Laure J. Reynolds, Lori L. Hughes, and Edward A. Dennis, Analytical Biochemistry, 204, pp. 190-197, 1992 (the disclosure of which is incorporated herein by reference):
A measured volume of racemic dipheptanoyl thio PC supplied in chloroform at a concentration of 100 mg/ml is taken to dryness and redissolved in 10 millimolar TRITON X-100™ nonionic detergent aqueous solution. Reaction Buffer is added to the solution, then DTNB to give the Reaction Mixture.
The reaction mixture thus obtained contains 1 mM diheptanoly thio-PC substrate, 0.29 mm Triton X-100™ detergent, and 0.12 mm DTMB in a buffered aqueous solution at pH 7.5.
1. Add 0.2 ml reaction mixture to all wells;
2. Add 10 ul test compound (or solvent blank) to appropriate wells, mix 20 seconds;
3. Add 50 nanograms of sPLA2 (10 microliters) to appropriate wells;
4. Incubate plate at 40° C. for 30 minutes;
5. Read absorbance of wells at 405 nanometers with an automatic plate reader.
All compounds were tested in triplicate. Typically, compounds were tested at a final concentration of 5 ug/ml. […] Lack of color development at 405 nanometers evidenced inhibition. Compounds initially found to be active were reassayed to confirm their activity and, if sufficiently active, IC50 values were determined. […] In all cases, % inhibition measured at 405 nanometers generated by enzyme reactions containing inhibitors relative to the uninhibited control reactions was determined. […] IC50 were determined by plotting log concentration versus inhibition values in the range from 10-90% inhibition.
Turning to `O=C(O)Cc1ccc(Oc2ccccc2)c2ccccc12` [Compound B, 4-Phenoxynaphth-1-yl acetic acid], the IC50 (as a rule, the concentration that inhibits the measured activity by half) turned out to be 51 µM.
In the case of `NC(=O)Cc1ccc(Oc2ccccc2)c2ccccc12` [Compound C, 4-Phenoxynaphth-1-yl acetamide] it was 4.4 µM; in that of `NC(=O)Cc1ccc(Cc2ccccc2)c2ccccc12` [Compound A, 4-Benzyl-1-naphphylacetamide], 0.87 µM.
